The nature of experiment [1]: (§1) PP2C Activity Assay: HAB1 and PYL proteins were expressed and purified as described in Park et al. ((2009) Science 324(5930):1068-1071), with minor modifications. To obtain GST-HAB1, the HAB1 cDNA was cloned into pGex-2T. Expression was conducted in BL21[DE3]pLysS host cells. Transformed cells were pre-cultured overnight, transferred to LB medium and cultured at 30° C. to culture A600 of ¿0.5.The culture was then cooled on ice and MnCl2 added to 4 mM and IPTG added to 0.3 mM. After 16 hours incubation at 15° C., cells were harvested and recombinant proteins were purified on glutathione agarose as described in Park et al. To obtain 6×His-PYL receptor fusion proteins, expression constructs previously described by Okamoto et al. 2013, (PNAS 110(29): 12132-12137) were used. ABA receptors were expressed and purified as described above.For the values shown in Table B5, PP2C activity assays using recombinant receptors and PP2Cs were carried out as follows: purified proteins were pre-incubated in 160 μl assay buffer containing 100 mM Tris-HCl-pH7.9, 100 mM NaCl, 3 μg bovine serum albumin, 0.1% 2-mercaptoethanol, 1 mM MnCl2 with ABA or agonists (compounds of the present invention) for 30 minutes at room temperature. […].

A short description of experiment [2]: as §1. The source holds these as a separate data set.

The values that follow come from ChEMBL document CHEMBL5726056, “2-oxo-3,4-dihydroquinolin-6-yl sulphonamide CPDS and their use as plant growth regulators” (2019).

As usually defined, the IC50 is the point on the concentration scale where inhibition reaches its midpoint.

With `CCN1C(=O)CC(C)c2cc(NS(=O)(=O)Cc3ccc(C4CC4)cc3)ccc21` (configuration not stated), the IC50 was 101 nM in experiment [1] and 200 nM in experiment [2].
